US20150258101A1 (Proximagen Limited, priority 2014, published 2015)
Structures can show the parent of a compound that is named as a salt.

Target: T1, purified recombinantly expressed human SSAO (Homo sapiens, UniProt Q16853)
T1 construct: made in house
T1 sequence (Q16853 1-763): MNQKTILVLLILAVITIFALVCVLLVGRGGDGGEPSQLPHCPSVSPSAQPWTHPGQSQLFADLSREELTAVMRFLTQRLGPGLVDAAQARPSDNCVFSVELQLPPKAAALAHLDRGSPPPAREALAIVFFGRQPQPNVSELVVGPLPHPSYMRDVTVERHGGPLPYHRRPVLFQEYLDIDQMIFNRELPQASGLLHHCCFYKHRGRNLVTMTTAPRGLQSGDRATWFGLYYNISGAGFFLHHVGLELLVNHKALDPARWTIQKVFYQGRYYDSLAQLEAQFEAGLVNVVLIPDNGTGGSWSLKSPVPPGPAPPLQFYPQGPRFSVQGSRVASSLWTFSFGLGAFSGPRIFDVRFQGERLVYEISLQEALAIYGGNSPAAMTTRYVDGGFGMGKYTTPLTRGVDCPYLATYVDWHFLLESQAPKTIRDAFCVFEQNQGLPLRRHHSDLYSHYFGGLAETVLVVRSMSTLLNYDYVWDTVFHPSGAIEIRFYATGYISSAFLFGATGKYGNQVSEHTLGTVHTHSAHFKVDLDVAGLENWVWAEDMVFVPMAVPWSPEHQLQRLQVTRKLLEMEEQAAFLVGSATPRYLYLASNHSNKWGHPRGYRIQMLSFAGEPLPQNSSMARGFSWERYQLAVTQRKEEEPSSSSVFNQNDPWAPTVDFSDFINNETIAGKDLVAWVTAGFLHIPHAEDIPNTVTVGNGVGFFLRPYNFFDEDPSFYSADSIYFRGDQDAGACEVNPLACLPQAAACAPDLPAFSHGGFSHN
Experiment: SSAO enzyme inhibition assay (benzylamine substrate; hydrogen peroxide/HRP-coupled or 14C aldehyde detection)
Assay type: biochemical
Conditions: SSAO inhibitory activity, RT
Procedure: All primary assays were performed at RT. with purified recombinantly expressed human SSAO. Enzyme was prepared essentially as described in Öhman et al. (Protein Expression and Purification 46 (2006) 321-331). In addition, secondary- and selectivity assays were performed using SSAO prepared from various tissues or purified rat recombinant SSAO. The enzyme activity was assayed with benzylamine as substrate by measuring either benzaldehyde production, using ^14C-labeled substrate, or by utilizing the production of hydrogen peroxide in a horseradish peroxidase (HRP) coupled reaction. Briefly, test compounds were dissolved in dimethyl sulfoxide (DMSO) to a concentration of 10 mM. Dose-response measurements were assayed by either creating 1:10 serial dilutions in DMSO to produce a 7 point curve or by making 1:3 serial dilutions in DMSO to produce 11 point curves.
In a horseradish peroxidase (HRP) coupled reaction, hydrogen peroxide oxidation of 10-acetyl-3,7-dihydroxyphenoxazine produced resorufin, which is a highly fluorescent compound (Zhout and Panchuk-Voloshina. Analytical Biochemistry 253 (1997) 169-174; Amplex® Red Hydrogen Peroxide/peroxidase Assay kit, Invitrogen A22188). Enzyme and compounds in 50 mM sodium phosphate, pH 7.4 were set to pre-incubate in flat-bottomed microtiter plates for approximately 15 min before initiating the reaction by addition of a mixture of HRP, benzylamine and Amplex reagent. Benzylamine concentration was fixed at a concentration corresponding to the Michaelis constant, determined using standard procedures. Fluorescence intensity was then measured at several time points during 1-2 h, exciting at 544 nm and reading the emission at 590 nm. For the human SSAO assay final concentrations of the reagents in the assay wells were: SSAO enzyme 1 ug/ml, benzylamine 100 uM, Amplex reagent 20 uM, HRP 0.1 U/mL and varying concentrations of test compound. The inhibition was measured as % decrease of the signal compared to a control without inhibitor (only diluted DMSO). The background signal from a sample containing no SSAO enzyme was subtracted from all data points. Data was fitted to a four parameter logistic model and IC50 values were calculated using the Graph Pad Prism 4 or XLfit 4 programs.
SSAO activity was assayed using 14C-labeled benzylamine and analysed by measuring radioactive benzaldehyde. In a white 96-well optiplate (Packard), 20 uL of diluted test compound was pre-incubated at room temperature with 20 uL SSAO enzyme for approximately 15 min with continuous agitation. All dilutions were made with PBS. The reaction was initiated by adding 20 uL of the benzylamine substrate solution containing [7-14C] Benzylamine hydrochloride (CFA589, GE Healthcare). The plate was incubated for 1 h as above after which the reaction was stopped by acidification (10 uL 1M aq HCl). Then 90 uL Micro Scint-E solution (Perkin-Elmer) was added to each well and the plate was continuously mixed for 15 min. Phase separation occurred instantly and activity was read in a Topcount scintillation counter (Perkin-Elmer). In the final reaction well, the human recombinant SSAO concentration was 10 ug/ml. In order to optimize sensitivity, the substrate concentration was decreased as compared to the HRP coupled assay in order to get a higher fraction of radioactive product. In the human SSAO assay, benzylamine concentration was 40 uM (0.2 uCi/mL). Data was analysed as above.

| Structure (SMILES) | IC50 [nM] |
| --- | --- |
| FC(F)(F)c1ccc(-n2c(-c3ccc(N4CCOCC4)nc3)nc3ccncc32)cc1 [Example 66, 4-(5-{3-[4-(Trifluoromethyl)phenyl]-3H-imidazo[4,5-c]pyridin-2-yl}pyridin-2-yl)morpholine] | 50 to 200 |
| CN(C)c1ncc(-c2nc3ccncc3n2-c2ccc(Cl)cc2)cn1 [Example 72, 5-[3-(4-Chlorophenyl)-3H-imidazo[4,5-c]pyridin-2-yl]-N,N-dimethylpyrimidin-2-amine] | 200 to 1200 |
| Fc1ccc(-n2c(-c3ccnc(N4CCOCC4)c3)nc3ccncc32)cc1 [Example 73, 4-{4-[3-(4-Fluorophenyl)-3H-imidazo[4,5-c]pyridin-2-yl]pyridin-2-yl}morpholine] | 50 to 200 |
| Fc1cc(-n2c(-c3cnc(N4CCOCC4)nc3)nc3ccncc32)ccc1Cl [Example 74, 4-{5-[3-(4-Chloro-3-fluorophenyl)-3H-imidazo[4,5-c]pyridin-2-yl]pyrimidin-2-yl}morpholine] | 200 to 1200 |
| Fc1ccc(-n2c(-c3cnc(N4CCOCC4)nc3)nc3ccncc32)nc1 [Example 76, 4-{5-[3-(5-Fluoropyridin-2-yl)-3H-imidazo[4,5-c]pyridin-2-yl]pyrimidin-2-yl}morpholine] | 50 to 200 |
| NC(=O)N1CCN(c2ncc(-c3nc4ccncc4n3-c3ccc(Cl)cc3)o2)CC1 [Example 93, 4-{5-[3-(4-Chlorophenyl)-3H-imidazo[4,5-c]pyridin-2-yl]-1,3-oxazol-2-yl}piperazine-1-carboxamide] | 50 to 200 |
| NC(=O)N1CCCN(c2ccc(-c3nc4ccncc4n3-c3ccc(F)cc3)cn2)CC1 [Example 94, 4-{5-[3-(4-Fluorophenyl)-3H-imidazo[4,5-c]pyridin-2-yl]pyridin-2-yl}-1,4-diazepane-1-carboxamide] | 200 to 1200 |
| c1cc2nc(-c3cnc(N4CCOCC4)nc3)n(-c3ccc(C4CC4)cc3)c2cn1 [Example 96, 4-{5-[3-(4-Cyclopropylphenyl)-3H-imidazo[4,5-c]pyridin-2-yl]pyrimidin-2-yl}morpholine] | 50 to 200 |
| Cc1ccc(-n2c(-c3cnc(N4CCOCC4)cc3C)nc3ccncc32)cc1 [Example 97, 4-{4-Methyl-5-[3-(4-methylphenyl)-3H-imidazo[4,5-c]pyridin-2-yl]pyridin-2-yl}morpholine] | 200 to 1200 |
| Cc1cc(NC2CCOCC2)ncc1-c1nc2ccncc2n1-c1ccc(F)cc1 [Example 100, 5-[3-(4-Fluorophenyl)-3H-imidazo[4,5-c]pyridin-2-yl]-4-methyl-N-(oxan-4-yl)pyridin-2-amine] | 200 to 1200 |
| Cc1cc(NCC2CC2)ncc1-c1nc2ccncc2n1-c1ccc(F)cc1 [Example 101, N-(Cyclopropylmethyl)-5-[3-(4-fluorophenyl)-3H-imidazo[4,5-c]pyridin-2-yl]-4-methylpyridin-2-amine] | 50 to 200 |
| Cc1ccc(-n2c(-c3ccc(N4C[C@@H](C)O[C@@H](C)C4)nc3)nc3ccncc32)cn1 [Example 103, (2R,6S)-2,6-Dimethyl-4-{5-[3-(6-methylpyridin-3-yl)-3H-imidazo[4,5-c]pyridin-2-yl]pyridin-2-yl}morpholine; tris(trifluoroacetic acid)] | 50 to 200 |
| Nc1ccc(-c2nc3ccncc3n2-c2ccc(Cl)cc2F)cn1 [Example 105, 5-[3-(4-Chloro-2-fluorophenyl)-3H-imidazo[4,5-c]pyridin-2-yl]pyridin-2-amine] | 200 to 1200 |
| CN1CCN(c2ccc(-c3nc4ccncc4n3-c3ccc(F)cc3)cn2)CC1=O [Example 106, 4-{5-[3-(4-Fluorophenyl)-3H-imidazo[4,5-c]pyridin-2-yl]pyridin-2-yl}-1-methylpiperazin-2-one] | 50 to 200 |
| Cc1nc(N2CCOCC2)ccc1-c1nc2ccncc2n1-c1ccc(F)cc1 [Example 108, 4-{5-[3-(4-Fluorophenyl)-3H-imidazo[4,5-c]pyridin-2-yl]-6-methylpyridin-2-yl}morpholine] | 200 to 1200 |
| CN(C)c1cc(-c2nc3ccncc3n2-c2ccc(F)cc2)ccn1 [Example 109, 4-[3-(4-Fluorophenyl)-3H-imidazo[4,5-c]pyridin-2-yl]-N,N-dimethylpyridin-2-amine] | 200 to 1200 |

Next, values leading:

| IC50 [nM] | Structure (SMILES) |
| --- | --- |
| < 50 | Fc1ccccc1-n1c(-c2ccc(N3CCOCC3)nc2)nc2ccncc21 [Example 68, 4-{5-[3-(2-Fluorophenyl)-3H-imidazo[4,5-c]pyridin-2-yl]pyridin-2-yl}morpholine] |
| < 50 | Cc1ccc(-n2c(-c3cnc(N4CCOCC4)nc3)nc3ccncc32)nc1 [Example 79, 4-{5-[3-(5-Methylpyridin-2-yl)-3H-imidazo[4,5-c]pyridin-2-yl]pyrimidin-2-yl}morpholine] |
| < 50 | Fc1cc(Cl)ccc1-n1c(-c2cnc(N3CCCC3)nc2)nc2ccncc21 [Example 83, 5-[3-(4-Chloro-2-fluorophenyl)-3H-imidazo[4,5-c]pyridin-2-yl]-2-(pyrrolidin-1-yl)pyrimidine] |
| < 50 | CN(C)c1ncc(-c2nc3ccncc3n2-c2ccc(Cl)cc2F)cn1 [Example 84, 5-[3-(4-Chloro-2-fluorophenyl)-3H-imidazo[4,5-c]pyridin-2-yl]-N,N-dimethylpyrimidin-2-amine] |
| < 50 | CC(=O)N1CCCN(c2ccc(-c3nc4ccncc4n3-c3ccc(F)cc3)cn2)CC1 [Example 87, 1-(4-{5-[3-(4-Fluorophenyl)-3H-imidazo[4,5-c]pyridin-2-yl]pyridin-2-yl}-1,4-diazepan-1-yl)ethan-1-one; bis(trifluoroacetic acid)] |
| < 50 | NC(=O)N1CCN(c2ccc(-c3nc4ccncc4n3-c3ccc(Cl)cc3)cn2)CC1 [Example 90, 4-{5-[3-(4-Chlorophenyl)-3H-imidazo[4,5-c]pyridin-2-yl]pyridin-2-yl}piperazine-1-carboxamide dihydrochloride] |
| < 50 | O=c1cc(N2CCOCC2)[nH]cc1-c1nc2ccncc2n1-c1ccc(F)cc1 [Example 99, 5-[3-(4-Fluorophenyl)-3H-imidazo[4,5-c]pyridin-2-yl]-2-(morpholin-4-yl)-1,4-dihydropyridin-4-one] |
| < 50 | Cc1ccc(-n2c(-c3ccc(N4C[C@@H](C)O[C@@H](C)C4)nc3)nc3ccncc32)nc1 [Example 104, (2R,6S)-2,6-Dimethyl-4-{5-[3-(5-methylpyridin-2-yl)-3H-imidazo[4,5-c]pyridin-2-yl]pyridin-2-yl}morpholine] |
| < 50 | Cc1ccc(-n2c(-c3cnc(N4CCOCC4)cc3C)nc3ccncc32)cn1 [Example 107, 4-{4-Methyl-5-[3-(6-methylpyridin-3-yl)-3H-imidazo[4,5-c]pyridin-2-yl]pyridin-2-yl}morpholine] |
| < 50 | Fc1ccc(-n2c(-c3ccc(OC4CCOC4)nc3)nc3ccncc32)cc1 (stereo not drawn) [Example 112, 5-[3-(4-Fluorophenyl)-3H-imidazo[4,5-c]pyridin-2-yl]-2-(oxolan-3-yloxy)pyridine] |
| < 50 | Fc1ccc(-n2c(-c3ccc(OC4CCOCC4)nc3)nc3ccncc32)cc1 [Example 113, 5-[3-(4-Fluorophenyl)-3H-imidazo[4,5-c]pyridin-2-yl]-2-(oxan-4-yloxy)pyridine] |
